Values quoted from earlier work as cited in US20110118360A1, “AGENT FOR ACTIVATING STEM CELLS” (priority 2008, published 2011).

Key:
[1] = system: mesenchymal stem cells
[2] = system: 26S proteasome
[3] = system: neutrophils; details: shortened from 5

Molecule: CC(C)C[C@H](NC(=O)[C@H](Cc1ccccc1)NC(=O)c1cnccn1)B(O)O [bortesomib, [(1R)-3-methyl-1 [[(2S)-1-oxo-3-phenyl-2-[(pirasinilcarbonil)amino]propyl]amino]butyl]]
- effect on mesenchymal stem cells [1]: direct pharmacological effect on mesenchymal stem cells
- effect on 26S proteasome activity [2]: highly selective reversible inhibitor

B1: Filgastrim: glycoprotein consisting of 175 amino acids obtained by expression of a human gene in E. coli (protein, chains of the INN, looked up)
chain: MTPLGPASSLPQSFLLKCLEQVRKIQGDGAALQEKLCATYKLCHPEELVLLGHSLGIPWAPLSSCPSQALQLAGCLSQLHSGLFLYQGLLQALEGISPELGPTLDTLQLDVADFATTIWQQMEELGMAPALQPTQGAMPAFASAFQRRAGGVLVASHLQSFLEVSYRVLRHLAQP
modifications: N-terminal methionine, E. coli expressed
notes: glycoprotein consisting of 175 amino acids obtained by expression of a human gene in E. coli
- maturation period of neutrophils from the progenitor cells [3]: 1 days
